# Measured values taken from paper PMC4077236 (Neurochemistry International, 2014).
# Several values for one entry are separate records, joined by “and”; a condition that tells them apart may be missing. Equal values may be shown once. Entries after “also recorded” stand apart in the source; their conditions may differ. Read-outs that look alike come from different tables or passages of the source.
# Tests used:
# [1] = ref Lin and Tsai, 2006; cited from earlier work
# [2] = target: T1, human DAT (Homo sapiens, UniProt Q01959)
# T1 sequence (Q01959 whole entry): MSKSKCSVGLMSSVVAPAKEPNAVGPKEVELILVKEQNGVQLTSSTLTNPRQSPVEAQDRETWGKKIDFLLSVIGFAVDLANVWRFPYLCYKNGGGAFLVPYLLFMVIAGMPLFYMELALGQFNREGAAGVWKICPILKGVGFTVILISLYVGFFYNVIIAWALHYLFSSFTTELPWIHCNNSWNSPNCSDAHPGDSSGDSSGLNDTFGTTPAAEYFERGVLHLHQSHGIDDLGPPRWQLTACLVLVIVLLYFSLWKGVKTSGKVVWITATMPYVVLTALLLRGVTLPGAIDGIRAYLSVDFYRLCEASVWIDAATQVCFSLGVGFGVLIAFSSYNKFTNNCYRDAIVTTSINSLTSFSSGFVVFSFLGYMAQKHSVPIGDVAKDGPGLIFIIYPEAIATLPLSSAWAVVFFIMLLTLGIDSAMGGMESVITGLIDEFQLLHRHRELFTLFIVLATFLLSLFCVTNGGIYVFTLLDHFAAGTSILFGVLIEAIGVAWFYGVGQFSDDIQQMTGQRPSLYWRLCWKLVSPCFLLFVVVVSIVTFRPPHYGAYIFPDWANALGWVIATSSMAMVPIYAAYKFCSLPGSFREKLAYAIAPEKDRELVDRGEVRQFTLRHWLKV
# Procedure: (§1) For release studies, HEK-SERT, HEK-NET, or HEK-DAT cells were grown overnight on round glass coverslips (5-mm diameter, 40,000 cells per coverslip) placed in a 96-well plate and preloaded with 0.4 μM [^3H]dopamine, 0.1 μM [^3H]MPP+, or 0.4 μM [^3H]5-HT for 20 min at 37 °C in a final volume of 0.1 mL/well. […] A washout period of 40 min established a stable baseline for efflux of radioactivity; thereafter, substances were added and the experiment was started with the collection of fractions (2 min). At the end of the experiment, cells were lysed in 1% SDS and the released radioactivity was quantified by liquid scintillation counting.
# (§2) The release of [^3H] labelled substrate was expressed as fractional rate (i.e., the radioactivity released within one fraction was expressed as a percentage of the total radioactivity present in the cells at the beginning of that fraction). Drug-induced release was calculated by subtracting the estimated basal release from total release during the first 8 min of drug exposure and is expressed as a percentage of radioactivity in the cell at the beginning of drug exposure. Data were normalized by using cpm values with no substance present (only solvent) as 100%.
# [3] = target: T2, human NET (Homo sapiens, UniProt P23975)
# T2 sequence (P23975 whole entry): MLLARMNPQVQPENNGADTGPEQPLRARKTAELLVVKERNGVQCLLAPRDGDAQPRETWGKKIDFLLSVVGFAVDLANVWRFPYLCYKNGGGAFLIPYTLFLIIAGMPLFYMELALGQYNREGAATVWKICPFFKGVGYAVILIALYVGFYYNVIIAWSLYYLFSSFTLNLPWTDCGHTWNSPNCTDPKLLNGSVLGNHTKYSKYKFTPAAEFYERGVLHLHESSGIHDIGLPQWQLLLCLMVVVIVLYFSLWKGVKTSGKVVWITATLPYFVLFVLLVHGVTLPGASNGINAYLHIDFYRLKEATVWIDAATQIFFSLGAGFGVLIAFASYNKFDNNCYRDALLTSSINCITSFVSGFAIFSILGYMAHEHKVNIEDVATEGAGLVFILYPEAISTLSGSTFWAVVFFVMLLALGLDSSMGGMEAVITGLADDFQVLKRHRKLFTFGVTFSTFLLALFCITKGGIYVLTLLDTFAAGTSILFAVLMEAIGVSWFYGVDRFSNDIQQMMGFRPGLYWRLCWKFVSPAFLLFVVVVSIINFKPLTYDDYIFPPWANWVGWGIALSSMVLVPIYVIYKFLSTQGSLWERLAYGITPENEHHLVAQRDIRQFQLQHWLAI
# [4] = stated without reference; cited from earlier work
# [5] = target: T2, human NET; experiment: cell-based
# [6] = target: T1, human DAT; remark: listed apart in the source
# Procedure: (§3) In brief, the cells were washed twice with Krebs–Ringer–HEPES buffer (KHB; composition: 25 mM HEPES·NaOH, pH 7.4, 120 mM NaCl, 5 mM KCl, 1.2 mM CaCl2, and 1.2 mM MgSO4 supplemented with 5 mM D-glucose). Then, the diluted reference and sample compounds were added and incubated for 5 min to allow for equilibration with the transporters. Subsequently, the tritiated substrates were added and the reaction was stopped after 1 min (SERT and DAT) and 3 min (NET), respectively. Cells were lysed with 1% SDS and the released radioactivity was quantified by liquid scintillation counting. All determinations were performed in duplicate or triplicate.
# (§4) The release of [^3H] labelled substrate was expressed as fractional rate (i.e., the radioactivity released within one fraction was expressed as a percentage of the total radioactivity present in the cells at the beginning of that fraction). Drug-induced release was calculated by subtracting the estimated basal release from total release during the first 8 min of drug exposure and is expressed as a percentage of radioactivity in the cell at the beginning of drug exposure. Data were normalized by using cpm values with no substance present (only solvent) as 100%. IC50 values were calculated using non-linear regression fits performed with Prism software (GraphPad 5.0, San Diego, CA, U.S.A.). Data transformed into Dixon plots were fitted by linear regression.
# [7] = target: T1, human DAT; experiment: cell-based
# Procedure: as §3, §4
# [8] = in vivo; conditions: human, plasma, po, 50 mg
# [9] = target: T2, human NET; remark: listed apart in the source
# Procedure: as §1, §2
# [10] = target: T3, human SERT (Homo sapiens, UniProt P31645); experiment: cell-based
# T3 sequence (P31645 whole entry): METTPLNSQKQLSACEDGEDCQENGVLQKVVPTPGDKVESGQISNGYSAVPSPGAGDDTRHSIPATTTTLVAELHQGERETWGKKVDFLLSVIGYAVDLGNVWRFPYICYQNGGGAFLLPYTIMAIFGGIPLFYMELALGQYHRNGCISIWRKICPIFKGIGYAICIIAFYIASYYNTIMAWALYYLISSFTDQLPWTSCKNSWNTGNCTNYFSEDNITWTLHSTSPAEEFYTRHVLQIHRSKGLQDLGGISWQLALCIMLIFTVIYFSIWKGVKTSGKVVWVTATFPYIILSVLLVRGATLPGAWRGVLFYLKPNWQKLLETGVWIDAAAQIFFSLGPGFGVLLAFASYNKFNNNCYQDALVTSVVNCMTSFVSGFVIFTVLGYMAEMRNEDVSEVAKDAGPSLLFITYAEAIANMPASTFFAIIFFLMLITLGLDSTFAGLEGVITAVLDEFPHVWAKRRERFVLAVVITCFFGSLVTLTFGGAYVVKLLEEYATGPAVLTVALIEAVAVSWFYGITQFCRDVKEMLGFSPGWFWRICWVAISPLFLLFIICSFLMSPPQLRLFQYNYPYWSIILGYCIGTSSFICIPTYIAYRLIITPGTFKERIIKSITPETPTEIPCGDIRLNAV
# [11] = target: T3, human SERT
# Procedure: as §1, §2
# [12] = target: T3, human SERT; remark: listed apart in the source
# [13] = after levamisole administration; ref Hess et al., 2013; cited from earlier work
# [14] = IC50 uptake inhibition NET in the absence of cocaine
# [15] = IC50 uptake inhibition DAT in the absence of cocaine, allosteric interaction experiment, dopamine uptake
# [16] = IC50 uptake inhibition DAT, HEK293 stably expressing human DAT, substrate [3H]dopamine 0.1 μM, 5 min preincubation
structure (smiles),measurement,setting,value
c1ccc([C@H]2CN3CCSC3=N2)cc1 [levamisole],blood–brain barrier permeation,[1],readily permeates the blood–brain barrier
same,substrate efflux DAT,"[2]; 100 μM levamisole, absence of monensin, [3H]dopamine preloaded",no efflux was observed; also recorded: could not detect substrate efflux
same,less potent than cocaine in blocking norepinephrine uptake,[3],100 fold
same,pKa,[4],7
same,IC50,[5]; IC50 uptake inhibition NET,74.5 µM
same,IC50,[5]; [14],521 ± 2.3 µM
same,less potent than cocaine in blocking dopamine uptake,[6]; relative to cocaine,300 fold
same,IC50,[7]; [15],476 ± 1.54 µM
same,IC50,[7]; [16],209.9 ± 1.31 µM
same,Cmax,[8],~1500 nM
same,substrate efflux NET,"[9]; 100 μM levamisole, absence of monensin, [3H]MPP+ preloaded",slight increase; also recorded: slight increased substrate efflux
NC1=NCC(c2ccccc2)O1 (stereo not drawn) [aminorex],IC50,[10]; IC50 uptake inhibition SERT,18.4 ± 1.12 µM
same,IC50,[10]; IC50 uptake inhibition SERT in the absence of cocaine,26.3 ± 1.03 µM
same,substrate efflux SERT,[11],strong release; also recorded: significant substrate release
same,substrate efflux DAT,"[2]; 50 μM aminorex, presence and absence of 10 μM monensin",no releasing effect; also recorded: completely absent
same,Dixon plot: binding relative to cocaine at NET,[3],mutually exclusive manner
same,pKa,[4],7.4
same,Dixon plot: binding relative to cocaine at SERT,[12],mutually exclusive manner
same,SERT inhibited at higher concentrations than NET and DAT,[12],20 fold
same,SERT inhibitory effect compared to cocaine,[12],more than 10 fold
same,IC50,[5]; IC50 uptake inhibition NET,0.33 µM and < 1 µM
same,IC50,[5]; [14],1.97 ± 1.2 µM
same,Dixon plot: binding relative to cocaine at DAT,[6]; uptake inhibition with one inhibitor varied at fixed concentration of the other,mutually exclusive manner
same,IC50,[7]; [15],0.71 ± 1.05 µM
same,IC50,[7]; [16],0.85 µM and 0.855 µM and < 1 µM
same,time aminorex could be detected in human urine,[13],up to 54 h
same,substrate efflux NET,"[9]; 3 or 10 μM aminorex, presence and absence of 10 μM monensin",slight increase; also recorded: only a slight response
